The source made the active and inactive calls.
Legend:
[1] = HEK-293T viability loss after treatment – luminescence, T-cell screen hits, cytotoxicity control for TCR NF-kB inhibitor project, dose response (AID 489026); assay type: functional, cell-based;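 also: cells exposed to compound about 14 hours before the viability readout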
[2] = test system: P388/ADR; test: cells; assay type: functional; details: Mus musculus
[3] = test system: P388; test: cells; assay type: functional; details: Mus musculus
[4] = test system: SN12K1; test: cells; assay type: functional; details: Homo sapiens
[5] = Luminescence Cell-Based Dose Response HTS to Identify Inhibitors of 5'UTR Stem-Loop Driven Prion Protein mRNA Translation in H4 Neuroglioblastoma Cells. [Related pubchem assays: 1827 (Project Summary), 1813 (Primary HTS)]; assay type: functional
[6] = alpha-synuclein stem-loop luciferase translation blockers – H4 neuroglioma cells, luminescence, confirmation (AID 1988); assay type: functional, cell-based
[7] = luciferase reporter signal suppression in cells – H4 neuroglioma cells, luminescence, dose response (AID 1990); assay type: functional, cell-based
[8] = target: Heat shock protein HSP 90-alpha (Homo sapiens, UniProt P07900); assay type: functional, organism-based
[9] = P. falciparum Dd2 growth inhibitors, dose response, SYBR Green, cherry-picked samples (AID 1159567); assay type: functional, cell-based
[10] = Luminescence Cell-Based Dose Retest to Confirm Inhibitors of Cancer Stem Cells. [Related pubchem assays (depositor defined):AID2717, AID2721]; assay type: functional; details: Homo sapiens
[11] = test system: H9c2; test: cells; assay type: functional, cell-based; details: Rattus norvegicus, H9c2, Myocardium;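 also: confirmatory concentration-response retest of ultra-high-throughput screening hits for modulation of myocardial damage; cell death induced by hydrogen peroxide oxidative stress; compound pretreatment for 60 min then peroxide exposure for 2 h; potency is for protecting the cells against peroxide damage rather than for killing them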
[12] = test system: H4; test: Luminescence Cell-Based Dose Response HTS to Identify Activators of 5'UTR Stem-Loop Driven Prion Protein mRNA Translation in H4 Neuroglioblastoma Cells. [Related pubchem assays: 1829 (Project Summary), 1814 (Primary HTS)]; assay type: functional; details: Homo sapiens
[13] = Luminescence Cell-Based Dose Response HTS to Identify Activators of Luciferase Translation or Activity in H4 […] Cells. [Related pubchem assays: 1829 (Project Summary), 1814 (Primary HTS)]; assay type: functional
[14] = target: Large T antigen (Simian virus 40, UniProt P03070); assay type: functional, Betapolyomavirus macacae;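 also: Confirmatory-stage PubChem screen for compounds that inhibit SV40 T antigen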
Large T antigen, sequence (P03070 whole entry): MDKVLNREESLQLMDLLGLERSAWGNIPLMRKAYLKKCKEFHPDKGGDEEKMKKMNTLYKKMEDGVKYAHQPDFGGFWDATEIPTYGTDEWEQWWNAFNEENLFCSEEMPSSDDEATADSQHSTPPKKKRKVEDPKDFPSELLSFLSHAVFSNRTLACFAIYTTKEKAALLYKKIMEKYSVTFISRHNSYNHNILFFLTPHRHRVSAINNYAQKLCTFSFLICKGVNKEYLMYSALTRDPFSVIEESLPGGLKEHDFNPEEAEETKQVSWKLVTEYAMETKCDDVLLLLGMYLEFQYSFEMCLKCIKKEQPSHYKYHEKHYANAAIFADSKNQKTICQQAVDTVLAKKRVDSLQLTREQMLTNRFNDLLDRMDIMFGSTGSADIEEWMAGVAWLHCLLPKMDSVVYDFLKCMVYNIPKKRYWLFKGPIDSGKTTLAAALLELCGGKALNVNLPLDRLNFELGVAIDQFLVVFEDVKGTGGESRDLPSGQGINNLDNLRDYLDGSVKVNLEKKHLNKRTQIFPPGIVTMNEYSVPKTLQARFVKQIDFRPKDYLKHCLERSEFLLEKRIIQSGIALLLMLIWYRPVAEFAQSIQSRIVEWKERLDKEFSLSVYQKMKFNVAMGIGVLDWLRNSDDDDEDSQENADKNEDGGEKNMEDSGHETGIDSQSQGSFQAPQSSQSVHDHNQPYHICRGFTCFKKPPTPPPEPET

[15] = target: Induced myeloid leukemia cell differentiation protein Mcl-1 (Homo sapiens, UniProt Q07820); assay type: functional
Induced myeloid leukemia cell differentiation protein Mcl-1, sequence (Q07820 whole entry): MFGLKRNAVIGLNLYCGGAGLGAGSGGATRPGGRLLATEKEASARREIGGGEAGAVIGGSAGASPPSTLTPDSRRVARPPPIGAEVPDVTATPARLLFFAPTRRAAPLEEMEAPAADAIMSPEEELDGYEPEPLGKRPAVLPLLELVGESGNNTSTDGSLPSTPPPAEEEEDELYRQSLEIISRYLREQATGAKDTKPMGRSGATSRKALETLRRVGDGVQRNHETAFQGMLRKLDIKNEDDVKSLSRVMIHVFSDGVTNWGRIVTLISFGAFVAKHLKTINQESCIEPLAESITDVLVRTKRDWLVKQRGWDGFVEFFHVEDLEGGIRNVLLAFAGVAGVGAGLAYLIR

[16] = viability of uninfected HEp-2 cells – cell-based, HTS, cytotoxicity control for RSV inhibitor project, dose response (AID 2410); assay type: functional; details: human respiratory syncytial virus
[17] = target: T1, High affinity choline transporter 1 (Homo sapiens, UniProt Q9GZV3); test: human choline transporter blockers, potency – cell-based, 5-point CRC, membrane potential dye, dose response (AID 504840); assay type: functional
T1 sequence (Q9GZV3 whole entry): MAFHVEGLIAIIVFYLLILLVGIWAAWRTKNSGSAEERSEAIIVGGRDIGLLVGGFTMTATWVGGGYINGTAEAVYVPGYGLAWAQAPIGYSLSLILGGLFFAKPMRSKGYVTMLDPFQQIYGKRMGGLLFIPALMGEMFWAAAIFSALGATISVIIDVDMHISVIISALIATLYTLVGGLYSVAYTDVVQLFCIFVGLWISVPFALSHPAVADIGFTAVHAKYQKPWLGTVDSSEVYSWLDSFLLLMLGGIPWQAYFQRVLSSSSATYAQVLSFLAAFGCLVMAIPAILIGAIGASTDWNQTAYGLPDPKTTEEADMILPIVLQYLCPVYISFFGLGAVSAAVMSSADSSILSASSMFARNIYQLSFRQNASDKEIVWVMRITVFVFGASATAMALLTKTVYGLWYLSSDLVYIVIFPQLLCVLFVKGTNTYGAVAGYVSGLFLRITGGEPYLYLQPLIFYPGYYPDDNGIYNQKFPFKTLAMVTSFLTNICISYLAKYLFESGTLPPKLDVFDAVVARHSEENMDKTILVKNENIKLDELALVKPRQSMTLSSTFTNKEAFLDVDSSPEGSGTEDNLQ

## CCOc1ccccc1NC(=O)CN(c1ccc(OC)cc1)S(=O)(=O)c1c(C)noc1C
[1]
  IC50: > 80 µM (inactive)

## COc1ccc(OC)c(C2CC(=O)c3c([nH]c(C(=O)OC(C)C)c3C)C2)c1 (configuration not stated)
[1]
  IC50: > 80 µM (inactive)

## CN(C)CCNC(=O)c1cccc2[nH]c(-c3ccccn3)nc12
[2]
  GI50: 21.3 µM (inactive)
[3]
  GI50: 14.5 µM (inactive)
[4]
  GI50: 25.2 µM (inactive)

## [O-][n+]1c2c([n+]([O-])c3c1CCCC3)CCCC2
[5]
  EC50: > 120 µM (not active)
[6]
  EC50: > 120 µM (not active)
[7]
  EC50: > 120 µM (not active)

## O=C(/C=C/c1ccccc1Cl)c1ccc(O)cc1
[8]
  AC50: 4.46 µM (active)

## Cc1ccc(-c2ccccc2[C@H]2[C@@H](C#N)N(C(=O)NC3CCCC3)[C@H]2CO)cc1
[9]
  AC50: 7.19 µM (active)

## OCC#CCNCl
[2]
  GI50: > 46 µM (inactive)
[3]
  GI50: 16.1 µM (inactive)
[4]
  GI50: > 100 µM (inactive)

## COc1ccccc1C1=NOC(COc2ccc3c(C)cc(=O)oc3c2)C1 (configuration not stated)
[10]
  AC50: 0.224 µM (active)
[1]
  IC50: > 80 µM (inactive)

## CN(CCO)/N=N/c1n[nH]cc1C(N)=O
[2]
  GI50: > 100 µM (inactive)
[3]
  GI50: > 100 µM (inactive)
[4]
  GI50: > 100 µM (inactive)

## COc1cc([C@@H]2c3cc4c(cc3[C@@H](OC3OC5COC(C)OC5C(O)C3O)[C@H]3COC(=O)[C@H]23)OCO4)cc(OC)c1O (some centres not stated)
[2]
  GI50: 58.6 µM (inactive)
[3]
  GI50: 0.275 µM (active)
[4]
  GI50: 1.17 µM (inactive)

## CCC(C)C1NC(=O)CNC(=O)C2Cc3c([nH]c4cc(O)ccc34)[S+]([O-])CC(NC(=O)CNC1=O)C(=O)NC(CC(=O)O)C(=O)N1CC(O)CC1C(=O)NC(C(C)C(O)CO)C(=O)N2 (configuration not stated)
[2]
  GI50: 2.77 µM (inactive)
[3]
  GI50: 2.47 µM (inactive)
[4]
  GI50: 2.32 µM (inactive)

## Cc1sc2nc(CSCC(=O)N(C)CC(=O)Nc3ccc(F)cc3)nc(O)c2c1C
[11]
  IC50: 7.7 µM (active)

## Cc1cc(C)c2nc(-n3nc(C)cc3N)cc(C)c2c1
[12]
  EC50: 1.71 µM (active)
[13]
  EC50: 32.5 µM (active)

## CCN1CCN(Cc2ccccc2NC(=O)Nc2ccc(C)cc2)CC1
[12]
  EC50: 7.09 µM (active)
[13]
  EC50: > 120 µM (not active)

## COc1cc(/C=N/NC(=O)CCn2nc(C)cc2C)ccc1O
[14]
  IC50: 15.6 µM (active)

## O=C(CSc1nc2ccccc2s1)Nc1cc(S(=O)(=O)N2CCOCC2)ccc1O
[15]
  IC50: 1.75 µM (active)

## O=C(N/N=C/c1c[nH]c2ccccc12)c1ccc(O)c(O)c1
[14]
  IC50: 9.13 µM (active)

## CCOc1ccccc1/C=C(/NC(=O)c1ccccc1)C(=O)N(CC)CC
[5]
  EC50: > 120 µM (not active)
[6]
  EC50: > 120 µM (not active)
[7]
  EC50: > 120 µM (not active)

## O=C(Nc1ccccc1Br)C1CCCN1S(=O)(=O)c1cccc2nsnc12 (configuration not stated)
[16]
  CC50: 33.1 µM (active)
[17]
  IC50: 13.8 µM (active)
